Results: patent US10030047B2 (Hoffmann-La Roche Inc., priority 2015, dated 2018)
Values after ≈ are worked out from the molar mass of the structure shown.

The molecules below were run on A. baumannii strain ATCC19606 (assay: Minimum inhibitory concentration (MIC) determination, microbroth dilution (CLSI)). Conditions: Acinetobacter baumannii; A. baumannii ATCC19606; CAMHB; read after 20 hours; >=80% growth inhibition; read-out: ATCC19606 MIC.
Type: cell-based
Procedure, shortened: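 CLSI broth microdilution in cation-adjusted Mueller Hinton broth with twofold compound dilutions and ~5×10^5 CFU/ml inoculum, incubated at 35±2 °C. MIC read after 20 h as lowest concentration inhibiting ≥80% of growth, by eye and OD 600 nm.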
`CN1C(=O)[C@H](CCCCN)NC(=O)[C@H](CCCN)NCc2ccccc2Sc2ncc(Cl)cc2CNC(=O)[C@@H]1Cc1c[nH]c2ccccc12` [Example 179] was tested, and the MIC was 32 µg/mL (≈ 45.4 µM). `CN1C(=O)[C@H](CCCCN)NC(=O)[C@H](CNC(N)=O)NCc2cccnc2Sc2c(Cl)cc(Cl)cc2CNC(=O)[C@@H]1Cc1c[nH]c2ccccc12` [Example 180, [(11S,14S,17S)-14-(4-Amino-butyl)-23,25-dichloro-17-(1H-indol-3-ylmethyl)-16-methyl-12,15,18-trioxo-2-thia-4,10,13,16,19-pentaaza-tricyclo[19.4.0.0*3,8*]pentacosa-1(25),3(8),4,6,21,23-hexaen-11-ylmethyl]-urea] was tested, and the MIC was 1 µg/mL (≈ 1.32 µM). Work on `Cc1[nH]c2ccccc2c1C[C@H]1C(=O)NCc2cc(-c3ccncc3)cc(Cl)c2Sc2ncccc2CN[C@@H](CCCN)C(=O)N[C@@H](CCCCN)C(=O)N1C` [Example 181, (11S,14S,17S)-14-(4-Amino-butyl)-11-(3-amino-propyl)-25-chloro-16-methyl-17-(2-methyl-1H-indol-3-ylmethyl)-23-pyridin-4-yl-2-thia-4,10,13,16,19-pentaaza-tricyclo[19.4.0.0*3,8*]pentacosa-1(25),3(8),4,6,21,23-hexaene-12,15,18-trione] yielded an MIC of 0.25 µg/mL (≈ 0.314 µM). `Cc1[nH]c2ccccc2c1C[C@H]1C(=O)NCc2cc(-c3ccnc(Cl)c3)cc(Cl)c2Sc2ncccc2CN[C@@H](CCCN)C(=O)N[C@@H](CCCCN)C(=O)N1C` [Example 182, (11S,14S,17S)-14-(4-Amino-butyl)-11-(3-amino-propyl)-25-chloro-23-(2-chloro-pyridin-4-yl)-16-methyl-17-(2-methyl-1H-indol-3-ylmethyl)-2-thia-4,10,13,16,19-pentaaza-tricyclo[19.4.0.0*3,8*]pentacosa-1(25),3(8),4,6,21,23-hexaene-12,15,18-trione] showed an MIC of 0.5 µg/mL (≈ 0.602 µM). `Cc1[nH]c2ccccc2c1C[C@H]1C(=O)NCc2cc(-c3ccnc(F)c3)cc(Cl)c2Sc2ncccc2CN[C@@H](CCCN)C(=O)N[C@@H](CCCCN)C(=O)N1C` [Example 183, (11S,14S,17S)-14-(4-Amino-butyl)-11-(3-amino-propyl)-25-chloro-23-(2-fluoro-pyridin-4-yl)-16-methyl-17-(2-methyl-1H-indol-3-ylmethyl)-2-thia-4,10,13,16,19-pentaaza-tricyclo[19.4.0.0*3,8*]pentacosa-1(25),3(8),4,6,21,23-hexaene-12,15,18-trione] gave an MIC of 0.25 µg/mL (≈ 0.307 µM). With `CN1C(=O)[C@H](CCCCN)NC(=O)[C@H](CCC(N)=O)NCc2cccnc2Sc2c(Cl)cc(-c3ccccc3)cc2CNC(=O)[C@@H]1Cc1c[nH]c2ccccc12` [Example 184, 3-[(11S,14S,17S)-14-(4-Amino-butyl)-25-chloro-17-(1H-indol-3-ylmethyl)-16-methyl-12,15,18-trioxo-23-phenyl-2-thia-4,10,13,16,19-pentaaza-tricyclo[19.4.0.0*3,8*]pentacosa-1(25),3(8),4,6,21,23-hexaen-11-yl]-propionamide] the MIC was 2 µg/mL (≈ 2.51 µM). `CN1C(=O)[C@H](CCCCN)NC(=O)[C@H](CCCN)NCc2cccnc2Sc2c(Cl)cc(C#N)cc2CNC(=O)[C@@H]1Cc1c[nH]c2ccccc12` [Example 185, (11S,14S,17S)-14-(4-Amino-butyl)-11-(3-amino-propyl)-25-chloro-17-(1H-indol-3-ylmethyl)-16-methyl-12,15,18-trioxo-2-thia-4,10,13,16,19-pentaaza-tricyclo[19.4.0.0*3,8*]pentacosa-1(25),3(8),4,6,21,23-hexaene-23-carbonitrile] gave an MIC of 0.5 µg/mL (≈ 0.685 µM). For `Cc1noc(C)c1-c1cc(Cl)c2c(c1)CNC(=O)[C@H](Cc1c[nH]c3ccccc13)N(C)C(=O)[C@H](CCCCN)NC(=O)[C@H](CCCN)NCc1cccnc1S2` [Example 186, (11S,14S,17S)-14-(4-Amino-butyl)-11-(3-amino-propyl)-25-chloro-23-(3,5-dimethyl-isoxazol-4-yl)-17-(1H-indol-3-ylmethyl)-16-methyl-2-thia-4,10,13,16,19-pentaaza-tricyclo[19.4.0.0*3,8*]pentacosa-1(25),3(8),4,6,21,23-hexaene-12,15,18-trione], the MIC was 0.5 µg/mL (≈ 0.625 µM). Molecule `CN1C(=O)[C@H](CCCCN)NC(=O)[C@H](CCCN)NCc2cccnc2Sc2c(Cl)cc(N3CC4CC3CO4)cc2CNC(=O)[C@@H]1Cc1c[nH]c2ccccc12` (stereo partly drawn) [Example 187, (11S,14S,17S)-14-(4-Amino-butyl)-11-(3-amino-propyl)-25-chloro-17-(1H-indol-3-ylmethyl)-16-methyl-23-(2-oxa-5-aza-bicyclo[2.2.1]hept-5-yl)-2-thia-4,10,13,16,19-pentaaza-tricyclo[19.4.0.0*3,8*]pentacosa-1(25),3(8),4,6,21,23-hexaene-12,15,18-trione] has an MIC of 2 µg/mL (≈ 2.49 µM). `CN1C(=O)[C@H](CCCCN)NC(=O)[C@H](CCCN)NCc2cccnc2Sc2c(Cl)cc(C#CCOCc3ccccc3)cc2CNC(=O)[C@@H]1Cc1c[nH]c2ccccc12` [Example 188, (11S,14S,17S)-14-(4-Amino-butyl)-11-(3-amino-propyl)-23-(3-benzyloxy-prop-1-ynyl)-25-chloro-17-(1H-indol-3-ylmethyl)-16-methyl-2-thia-4,10,13,16,19-pentaaza-tricyclo[19.4.0.0*3,8*]pentacosa-1(25),3(8),4,6,21,23-hexaene-12,15,18-trione] showed an MIC of 2 µg/mL (≈ 2.35 µM). With `CN1C(=O)[C@H](CCCCN)NC(=O)[C@H](CCCN)NCc2ccccc2Sc2c(-c3ccccc3)ncc(Cl)c2CNC(=O)[C@@H]1Cc1c[nH]c2ccccc12` [Example 189] the MIC was 4 µg/mL (≈ 5.12 µM). With `CN1C(=O)[C@H](CCCCN)NC(=O)[C@H](CCCN)NCc2cccnc2Sc2c(Cl)ccc(-c3ccncc3)c2CNC(=O)[C@@H]1Cc1c[nH]c2ccccc12` [Example 190, (11S,14S,17S)-14-(4-Amino-butyl)-11-(3-amino-propyl)-25-chloro-17-(1H-indol-3-ylmethyl)-16-methyl-22-pyridin-4-yl-2-thia-4,10,13,16,19-pentaaza-tricyclo[19.4.0.0*3,8*]pentacosa-1(21),3,5,7,22,24-hexaene-12,15,18-trione] the MIC was 0.12 µg/mL (≈ 0.153 µM). With `CN1C(=O)[C@H](CCCCN)NC(=O)[C@H](CCCN)NCc2cccnc2Sc2c(Cl)ccc(-c3cccnc3)c2CNC(=O)[C@@H]1Cc1c[nH]c2ccccc12` [Example 191, (11S,14S,17S)-14-(4-Amino-butyl)-11-(3-amino-propyl)-25-chloro-17-(1H-indol-3-ylmethyl)-16-methyl-22-pyridin-3-yl-2-thia-4,10,13,16,19-pentaaza-tricyclo[19.4.0.0*3,8*]pentacosa-1(25),3(8),4,6,21,23-hexaene-12,15,18-trione] the MIC was 0.12 µg/mL (≈ 0.153 µM). With `CN1C(=O)[C@H](CCCCN)NC(=O)[C@H](CCCN)NCc2ccccc2Sc2nc(N3CCOCC3)ccc2CNC(=O)[C@@H]1Cc1c[nH]c2ccccc12` [Example 192] the MIC was 64 µg/mL (≈ 84.7 µM). For `CN1C(=O)[C@H](CCCCN)NC(=O)[C@H](CCCN)NCc2ccccc2Sc2ccnc(N3CCOCC3)c2CNC(=O)[C@@H]1Cc1c[nH]c2ccccc12` [Example 193], the MIC was 64 µg/mL (≈ 84.7 µM). For `Cc1[nH]c2ccccc2c1C[C@H]1C(=O)NCc2cc(-c3cncc(S(C)(=O)=O)c3)cc(Cl)c2Sc2ncccc2CN[C@@H](CCCN)C(=O)N[C@@H](CCCCN)C(=O)N1C` [Example 199, (11S,14S,17S)-14-(4-Amino-butyl)-11-(3-amino-propyl)-25-chloro-23-(5-methanesulfonyl-pyridin-3-yl)-16-methyl-17-(2-methyl-1H-indol-3-ylmethyl)-2-thia-4,10,13,16,19-pentaaza-tricyclo[19.4.0.0*3,8*]pentacosa-1(25),3(8),4,6,21,23-hexaene-12,15,18-trione], the MIC was 1 µg/mL (≈ 1.14 µM). `Cc1[nH]c2ccccc2c1C[C@H]1C(=O)NCc2c(-c3cccnc3)ccc(Cl)c2Sc2ncccc2CN[C@@H](CCCN)C(=O)N[C@@H](CCCCN)C(=O)N1C` [Example 200, (11S,14S,17S)-14-(4-Amino-butyl)-11-(3-amino-propyl)-25-chloro-16-methyl-17-(2-methyl-1H-indol-3-ylmethyl)-22-pyridin-3-yl-2-thia-4,10,13,16,19-pentaaza-tricyclo[19.4.0.0*3,8*]pentacosa-1(25),3(8),4,6,21,23-hexaene-12,15,18-trione] was tested, and the MIC was 0.12 µg/mL (≈ 0.151 µM). `Cc1[nH]c2ccccc2c1C[C@H]1C(=O)NCc2c(-c3ccncc3)ccc(Cl)c2Sc2ncccc2CN[C@@H](CCCN)C(=O)N[C@@H](CCCCN)C(=O)N1C` [Example 202, (11S,14S,17S)-14-(4-Amino-butyl)-11-(3-amino-propyl)-25-chloro-16-methyl-17-(2-methyl-1H-indol-3-ylmethyl)-22-pyridin-4-yl-2-thia-4,10,13,16,19-pentaaza-tricyclo[19.4.0.0*3,8*]pentacosa-1(25),3(8),4,6,21,23-hexaene-12,15,18-trione] gave an MIC of 0.12 µg/mL (≈ 0.151 µM). Molecule `Cc1[nH]c2ccccc2c1C[C@H]1C(=O)NCc2cc(-c3ccnc(N4CCN(C)CC4)c3)cc(Cl)c2Sc2ncccc2CN[C@@H](CCCN)C(=O)N[C@@H](CCCCN)C(=O)N1C` [Example 203, (7S,10S,13S)— 10-(4-aminobutyl)-7-(3-aminopropyl)-20-chloro-6,7,9,10,12,13,15,16-octahydro-12-methyl-13-[(2-methyl-1H-indol-3-yl)methyl]-18-[2-(4-methyl-1-piperazinyl)-4-pyridinyl]pyrido[2,3-b][1,5,8,11,14]benzothiatetraazacycloheptadecine-8,11,14(5H)-trione] has an MIC of 1 µg/mL (≈ 1.12 µM). Molecule `CN1C(=O)[C@H](CCCCN)NC(=O)[C@H](CCCN)NCc2cccnc2Sc2cnc(N3CCOCC3)cc2CNC(=O)[C@@H]1Cc1c[nH]c2ccccc12` [Example 204, (7S,10S,13S)-13-((1H-Indol-3-yl)methyl)-10-(4-aminobutyl)-7-(3-aminopropyl)-12-methyl-18-morpholino-6,7,9,10,12,13,15,16-octahydrodipyrido[2,3-b:4′,3′-p][1,5,8,11,14]thiatetraazacycloheptadecine-8,11,14(5H)-trione] has an MIC of 64 µg/mL (≈ 84.5 µM).
